{"source": "patent US10654816B2", "about": "“Compounds and compositions for treating conditions associated with NLRP activity” (NOVARTIS INFLAMMASOME RESEARCH, INC., priority 2017, dated 2020)"}
{"tested_on": "IL-1β production in PMA-differentiated THP-1 cells", "assay": "IL-1β production in PMA-differentiated THP-1 cells stimulated with gramicidin (hTHP-1 assay, HTRF readout; Procedures 1-3)", "assay_type": "cell-based, human", "conditions": "Homo sapiens, THP-1, hTHP-1 assay containing 2% fetal bovine serum; average; class symbols; read-out: hTHP-1 IC50 (Average IC50 of compounds in hTHP-1 assay)", "description": "(§1) The Following Protocol is Suitable for Testing the Activity of the Compounds Disclosed Herein. Procedure 1: IL-1B Production in PMA-Differentiated THP-1 Cells Stimulated with Gramicidin.\n(§2) THP-1 cells were purchased from the American Type Culture Collection and sub-cultured according to instructions from the supplier. Cells were cultured in complete RPMI 1640 (containing 10% heat inactivated FBS, penicillin (100 units/ml) and streptomycin (100 μg/ml)), and maintained in log phase prior to experimental setup. Prior to the experiment, compounds were dissolved in dimethyl sulfoxide (DMSO) to generate a 30 mM stock. The compound stock was first pre-diluted in DMSO to 3, 0.34, 0.042 and 0.0083 mM intermediate concentrations and subsequently spotted using Echo550 liquid handler into an empty 384-well assay plate to achieve desired final concentration (e.g. 100, 33, 11, 3.7, 1.2, 0.41, 0.14, 0.046, 0.015, 0.0051, 0.0017 μM). DMSO was backfilled in the plate to achieve a final DMSO assay concentration of 0.37%. The plate was then sealed and stored at room temperature until required.\n(§3) THP-1 cells were treated with PMA (Phorbol 12-myristate 13-acetate) (20 ng/ml) for 16-18 hours. On the day of the experiment the media was removed and adherent cells were detached with trypsin for 5 minutes. Cells were then harvested, washed with complete RPMI 1640, spun down, and resuspended in RPMI 1640 (containing 2% heat inactivated FBS, penicillin (100 units/ml) and streptomycin (100 μg/ml). The cells were plated in the 384-well assay plate containing the spotted compounds at a density of 50,000 cells/well (final assay volume 50 μl). Cells were incubated with compounds for 1 hour and then stimulated with gramicidin (5 μM) (Enzo) for 2 hours. Plates were then centrifuged at 340 g for 5 min. Cell free supernatant (40 μL) was collected using a 96-channel PlateMaster (Gilson) and the production of IL-1β was evaluated by HTRF (cisbio). The plates were incubated for 18 h at 4° C. and read using the preset HTRF program (donor emission at 620 nm, acceptor emission at 668 nm) of the SpectraMax i3x spectrophotometer (Molecular Devices, software SoftMax 6). A vehicle only control and a dose titration of CRID3 (100-0.0017 μM) were run concurrently with each experiment.\n(§4) Procedure 2: IL-1β Production in PMA-Differentiated THP-1 Cells Stimulated with Gramicidin.\n(§5) THP-1 cells were purchased from the American Type Culture Collection and sub-cultured according to instructions from the supplier. Prior to experiments, cells were cultured in complete RPMI 1640 (containing 10% heat inactivated FBS, penicillin (100 units/ml) and streptomycin (100 μg/ml)), and maintained in log phase prior to experimental setup. Prior to the experiment THP-1 were treated with PMA (Phorbol 12-myristate 13-acetate) (20 ng/ml) for 16-18 hours. Compounds were dissolved in dimethyl sulfoxide (DMSO) to generate a 30 mM stock.\n(§6) On the day of the experiment the media was removed and adherent cells were detached with trypsin for 5 minutes. Cells were then harvested, washed with complete RPMI 1640, spun down, resuspended in RPMI 1640 (containing 2% heat inactivated FBS, penicillin (100 units/ml) and streptomycin (100 μg/ml). The cells were plated in a 384-well plate at a density of 50,000 cells/well (final assay volume 50 μl). Compounds were first dissolved in assay medium to obtain a 5× top concentration of 500 μM. 10 step dilutions (1:3) were then undertaken in assay medium containing 1.67% DMSO. 5× compound solutions were added to the culture medium to achieve desired final concentration (e.g. 100, 33, 11, 3.7, 1.2, 0.41, 0.14, 0.046, 0.015, 0.0051, 0.0017 μM). Final DMSO concentration was at 0.37%. Cells were incubated with compounds for 1 hour and then stimulated with gramicidin (5 μM) (Enzo) for 2 hours. Plates were then centrifuged at 340 g for 5 min. Cell free supernatant (40 μL) was collected using a 96-channel PlateMaster (Gilson) and the production of IL-1β was evaluated by HTRF (cisbio). […]", "units": {"IC50": "µM"}}
{"molecule": "CC(=O)N(C)Cc1ccc(S(N)(=O)=NC(=O)Nc2c3c(cc4c2CCC4)CCC3)cc1", "note": "(single isomer, unassigned) [Example 366, (R) or (S)-N-(4-(N′-((1,2,3,5,6,7-hexahydro-s-indacen-4-yl)carbamoyl)sulfamid-imidoyl)benzyl)-N-methylacetamide]", "IC50": "1 to 5"}
{"molecule": "CC(=O)N(C)Cc1cccc(S(N)(=O)=NC(=O)Nc2c3c(cc4c2CCC4)CCC3)c1", "note": "(single isomer, unassigned) [Example 368, (R) or (S)-N-(3-(N′-((1,2,3,5,6,7-hexahydro-s-indacen-4-yl)carbamoyl)sulfamid-imidoyl)benzyl)-N-methylacetamide]", "IC50": "1 to 5"}
{"molecule": "CC(C)(O)c1ncc(S(N)(=O)=NC(=O)Nc2c3c(cc4c2C(O)CC4)CCC3)s1", "note": "(single isomer, unassigned) [Example 370, (R, R/S) or (S, R/S)-N′-((3-hydroxy-1,2,3,5,6,7-hexahydro-s-indacen-4-yl)carbamoyl)-2-(2-hydroxypropan-2-yl)thiazole-5-sulfonimidamide]", "IC50": "0.2 to 1"}
{"molecule": "COC1CN(Cc2ccc(S(N)(=O)=NC(=O)Nc3c4c(cc5c3CCC5)CCC4)cc2)C1", "note": "(single isomer, unassigned) [Example 379, (R) or (S)-N′-((1,2,3,5,6,7-hexahydro-s-indacen-4-yl)carbamoyl)-4-((3-methoxyazetidin-1-yl)methyl)benzene-sulfonimidamide]", "IC50": "1 to 5"}
{"molecule": "COCCN(C)Cc1ccc(S(N)(=O)=NC(=O)Nc2c3c(cc4c2CCC4)CCC3)cc1", "note": "(single isomer, unassigned) [Example 390, (R) or (S)-N′-((1,2,3,5,6,7-hexahydro-s-indacen-4-yl)carbamoyl)-4-(((2-methoxyethyl)(meth-yl)amino)methyl)benzene-sulfonimidamide]", "IC50": "1 to 5"}
{"molecule": "CN1CCc2cc(S(N)(=O)=NC(=O)Nc3c4c(cc5c3CCC5)CCC4)ccc2C1", "note": "(single isomer, unassigned) [Example 395, (R) or (S)-N′-((1,2,3,5,6,7-hexahydro-s-indacen-4-yl)carbamoyl)-2-methyl-1,2,3,4-tetrahydroisoquinoline-6-sulfonimidamide]", "IC50": "1 to 5"}
{"molecule": "Cn1ncc2cc(S(N)(=O)=NC(=O)Nc3c4c(cc5c3CCC5)CCC4)ccc21", "note": "(single isomer, unassigned) [Example 397, (R) or (S)-N′-((1,2,3,5,6,7-hexahydro-s-indacen-4-yl)carbamoyl)-1-methyl-1H-indazole-5-sulfonimidamide]", "IC50": "1 to 5"}
{"molecule": "CC(C)c1ccc(S(N)(=O)=NC(=O)Nc2c3c(cc4c2CCC4)CCC3)cn1", "note": "(single isomer, unassigned) [Example 402, (S) or (R)-N′-((1,2,3,5,6,7-hexahydro-s-indacen-4-yl)carbamoyl)-6-isopropylpyridine-3-sulfonimidamide]", "IC50": "1 to 5"}
{"tested_on": "IL-1β production in PMA-differentiated THP-1 cells", "assay": "IL-1β production in PMA-differentiated THP-1 cells stimulated with gramicidin (hTHP-1 assay, HTRF readout; Procedures 1-3)", "assay_type": "cell-based, human", "conditions": "Homo sapiens, THP-1, hTHP-1 assay containing 2% fetal bovine serum; average; given as bound; read-out: hTHP-1 IC50 (Average IC50 of compounds in hTHP-1 assay)", "description": "as §1, §2, §3, §4, §5, §6", "units": {"IC50": "µM"}}
{"molecule": "CC(=O)N(C)Cc1ccc(S(N)(=O)=NC(=O)Nc2c3c(cc4c2CCC4)CCC3)cc1", "note": "(single isomer, unassigned) [Example 365, (S) or (R)-N-(4-(N′-((1,2,3,5,6,7-hexahydro-s-indacen-4-yl)carbamoyl)sulfamid-imidoyl)benzyl)-N-methylacetamide]", "IC50": "> 30"}
{"molecule": "CC(=O)N(C)Cc1cccc(S(N)(=O)=NC(=O)Nc2c3c(cc4c2CCC4)CCC3)c1", "note": "(single isomer, unassigned) [Example 367, (S) or (R)-N-(3-(N′-((1,2,3,5,6,7-hexahydro-s-indacen-4-yl)carbamoyl)sulfamid-imidoyl)benzyl)-N-methylacetamide]", "IC50": "> 30"}
{"molecule": "CC(C)(O)c1ncc(S(N)(=O)=NC(=O)Nc2c3c(cc4c2C(O)CC4)CCC3)s1", "note": "(single isomer, unassigned) [Example 369, (S, R/S) or (R, R/S)-N′-((3-hydroxy-1,2,3,5,6,7-hexahydro-s-indacen-4-yl)carbamoyl)-2-(2-hydroxypropan-2-yl)thiazole-5-sulfonimidamide]", "IC50": "> 30"}
{"molecule": "COC1CN(Cc2ccc(S(N)(=O)=NC(=O)Nc3c4c(cc5c3CCC5)CCC4)cc2)C1", "note": "(single isomer, unassigned) [Example 380, (S) or (R)-N′-((1,2,3,5,6,7-hexahydro-s-indacen-4-yl)carbamoyl)-4-((3-methoxyazetidin-1-yl)methyl)benzene-sulfonimidamide]", "IC50": "> 30"}
{"molecule": "CNS(=O)(=NC(=O)Nc1c2c(cc3c1CCC3)CCC2)c1ccc(CN(C)C)cc1", "note": "(single isomer, unassigned) [Example 383, (R) or (S)-4-((dimethylamino)methyl)-N′-((1,2,3,5,6,7-hexahydro-s-indacen-4-yl)carbamoyl)-N-methylbenzene-sulfonimidamide]", "IC50": "> 30"}
{"molecule": "COCCN(C)Cc1ccc(S(N)(=O)=NC(=O)Nc2c3c(cc4c2CCC4)CCC3)cc1", "note": "(single isomer, unassigned) [Example 389, (S) or (R)-N′-((1,2,3,5,6,7-hexahydro-s-indacen-4-yl)carbamoyl)-4-(((2-methoxyethyl)(meth-yl)amino)methyl)benzene-sulfonimidamide]", "IC50": "> 30"}
{"molecule": "CN1CCc2cc(S(N)(=O)=NC(=O)Nc3c4c(cc5c3CCC5)CCC4)ccc2C1", "note": "(single isomer, unassigned) [Example 396, (S) or (R)-N′-((1,2,3,5,6,7-hexahydro-s-indacen-4-yl)carbamoyl)-2-methyl-1,2,3,4-tetrahydroisoquinoline-6-sulfonimidamide]", "IC50": "> 30"}
{"molecule": "Cn1ncc2cc(S(N)(=O)=NC(=O)Nc3c4c(cc5c3CCC5)CCC4)ccc21", "note": "(single isomer, unassigned) [Example 398, (S) or (R)-N′-((1,2,3,5,6,7-hexahydro-s-indacen-4-yl)carbamoyl)-1-methyl-1H-indazole-5-sulfonimidamide]", "IC50": "> 30"}
{"molecule": "CC(C)c1ccc(S(N)(=O)=NC(=O)Nc2c3c(cc4c2CCC4)CCC3)cn1", "note": "(single isomer, unassigned) [Example 401, (R) or (S)-N′-((1,2,3,5,6,7-hexahydro-s-indacen-4-yl)carbamoyl)-6-isopropylpyridine-3-sulfonimidamide]", "IC50": "> 30"}
{"tested_on": "IL-1β production in PMA-differentiated THP-1 cells", "assay": "IL-1β production in PMA-differentiated THP-1 cells stimulated with gramicidin (hTHP-1 assay, HTRF readout; Procedures 1-3)", "assay_type": "cell-based, human", "conditions": "hTHP-1 assay containing 2% fetal bovine serum; average; class symbols; read-out: hTHP-1 IC50 (Average IC50 of compounds in hTHP-1 assay)", "description": "as §1, §2, §3, §4, §5, §6", "units": {"IC50": "µM"}}
{"molecule": "CC(C)(O)c1ncc(S(N)(=O)=NC(=O)Nc2c3c(cc4c2C(O)CC4)CCC3)s1", "note": "(single isomer, unassigned) [Example 391, (R, R) or (R, S) or (S, S) or (S, R)-N′-((3-hydroxy-1,2,3,5,6,7-hexahydro-s-indacen-4-yl)carbamoyl)-2-(2-hydroxypropan-2-yl)thiazole-5-sulfonimidamide]", "IC50": "0.2 to 1"}
{"molecule": "CC(C)(O)c1ncc(S(N)(=O)=NC(=O)Nc2c3c(cc4c2C(O)CC4)CCC3)s1", "note": "(single isomer, unassigned) [Example 392, (R, S) or (R, R) or (S, R) or (S, S)-N′-((3-hydroxy- *1,2,3,5,6,7-hexahydro-s-indacen-4-yl)carbamoyl)-2-(2-hydroxypropan-2-yl)thiazole-5-sulfonimidamide]", "IC50": "0.2 to 1"}
{"tested_on": "IL-1β production in PMA-differentiated THP-1 cells", "assay": "IL-1β production in PMA-differentiated THP-1 cells stimulated with gramicidin (hTHP-1 assay, HTRF readout; Procedures 1-3)", "assay_type": "cell-based, human", "conditions": "hTHP-1 assay containing 2% fetal bovine serum; average; given as bound; read-out: hTHP-1 IC50 (Average IC50 of compounds in hTHP-1 assay)", "description": "as §1, §2, §3, §4, §5, §6", "units": {"IC50": "µM"}}
{"molecule": "CNS(=O)(=NC(=O)Nc1c2c(cc3c1CCC3)CCC2)c1ccc(CN(C)C)cc1", "note": "(single isomer, unassigned) [Example 384, (S) or (R)-4-((dimethylamino)methyl)-N′-((1,2,3,5,6,7-hexahydro-s-indacen-4-yl)carbamoyl)-N-methylbenzene-sulfonimidamide]", "IC50": "> 30"}
